The results in this text go back to article PMC9030254, “Target Hopping from Protein Kinases to PXR: Identification of Small-Molecule Protein Kinase Inhibitors as Selective Modulators of Pregnane X Receptor from TüKIC Library” (Cells, 2022).

Common to all, as to experiment: Kinase profiling
Common to all, as to assay type: biochemical

One experiment addresses T1, BRSK2 (Homo sapiens, UniProt Q8IWQ3).
T1 construct: purchased ProQinase (Freiburg, Germany)
T1 sequence (Q8IWQ3 1-736): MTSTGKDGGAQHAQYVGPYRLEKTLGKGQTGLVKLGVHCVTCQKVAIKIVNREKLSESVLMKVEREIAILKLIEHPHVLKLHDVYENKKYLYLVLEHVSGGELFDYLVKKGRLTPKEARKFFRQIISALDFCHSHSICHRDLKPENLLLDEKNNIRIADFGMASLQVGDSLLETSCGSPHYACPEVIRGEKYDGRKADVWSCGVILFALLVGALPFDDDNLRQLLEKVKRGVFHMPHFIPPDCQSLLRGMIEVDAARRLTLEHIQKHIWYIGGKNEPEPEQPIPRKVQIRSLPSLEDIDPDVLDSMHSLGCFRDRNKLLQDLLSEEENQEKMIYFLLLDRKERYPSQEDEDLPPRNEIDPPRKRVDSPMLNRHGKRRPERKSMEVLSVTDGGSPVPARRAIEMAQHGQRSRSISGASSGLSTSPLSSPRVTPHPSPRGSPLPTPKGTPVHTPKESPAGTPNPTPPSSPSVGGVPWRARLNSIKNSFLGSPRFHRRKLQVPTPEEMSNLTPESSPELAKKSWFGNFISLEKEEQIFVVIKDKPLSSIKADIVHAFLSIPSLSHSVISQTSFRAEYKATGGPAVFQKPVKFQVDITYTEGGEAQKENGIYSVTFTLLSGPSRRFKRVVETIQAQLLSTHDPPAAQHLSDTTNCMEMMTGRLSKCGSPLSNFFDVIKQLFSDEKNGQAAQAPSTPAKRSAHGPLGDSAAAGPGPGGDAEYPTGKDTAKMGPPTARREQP
The procedure: (§1) The analysis was performed by ProQinase (Freiburg, Germany).

The target of another experiment is T2, CDC7/DBF4 (Homo sapiens, UniProt O00311).
T2 construct: purchased ProQinase (Freiburg, Germany)
How it is done: as §1

The target of the next experiment is T3, CDK2/CycA2 (Homo sapiens, UniProt P24941).
T3 construct: purchased ProQinase (Freiburg, Germany)
How it is done: as §1

A further experiment addresses T4, CDK2/CycE1 (Homo sapiens, UniProt P24941).
T4 construct: purchased ProQinase (Freiburg, Germany)
How it is done: as §1

A further experiment concerns the target T5, CDK6/CycD3 (Homo sapiens, UniProt Q00534).
T5 construct: purchased ProQinase (Freiburg, Germany)
How it is done: as §1

For the next experiment, the target named is T6, MST2 (Homo sapiens, UniProt Q13188).
T6 construct: purchased ProQinase (Freiburg, Germany)
T6 sequence (Q13188 1-491): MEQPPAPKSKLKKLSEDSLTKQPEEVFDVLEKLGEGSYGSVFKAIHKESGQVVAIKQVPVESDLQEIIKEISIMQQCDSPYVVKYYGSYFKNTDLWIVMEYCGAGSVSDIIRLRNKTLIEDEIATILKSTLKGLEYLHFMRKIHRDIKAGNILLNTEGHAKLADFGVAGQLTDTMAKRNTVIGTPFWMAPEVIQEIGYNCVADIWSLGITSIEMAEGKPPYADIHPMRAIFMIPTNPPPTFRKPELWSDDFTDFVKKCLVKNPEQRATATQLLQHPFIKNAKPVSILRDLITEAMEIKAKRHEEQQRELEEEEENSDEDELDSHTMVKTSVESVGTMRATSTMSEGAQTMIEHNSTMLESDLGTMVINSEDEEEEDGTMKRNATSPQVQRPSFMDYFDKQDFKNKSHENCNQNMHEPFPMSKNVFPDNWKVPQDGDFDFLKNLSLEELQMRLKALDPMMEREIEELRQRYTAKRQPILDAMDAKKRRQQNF
The procedure:
as §1

The next experiment concerns the target T7, NEK4 (Homo sapiens, UniProt P51957).
T7 construct: purchased ProQinase (Freiburg, Germany)
The procedure: as §1

In the next experiment the target is T8, NLK (Homo sapiens, UniProt Q9UBE8).
T8 construct: purchased ProQinase (Freiburg, Germany)
T8 sequence (Q9UBE8 1-527): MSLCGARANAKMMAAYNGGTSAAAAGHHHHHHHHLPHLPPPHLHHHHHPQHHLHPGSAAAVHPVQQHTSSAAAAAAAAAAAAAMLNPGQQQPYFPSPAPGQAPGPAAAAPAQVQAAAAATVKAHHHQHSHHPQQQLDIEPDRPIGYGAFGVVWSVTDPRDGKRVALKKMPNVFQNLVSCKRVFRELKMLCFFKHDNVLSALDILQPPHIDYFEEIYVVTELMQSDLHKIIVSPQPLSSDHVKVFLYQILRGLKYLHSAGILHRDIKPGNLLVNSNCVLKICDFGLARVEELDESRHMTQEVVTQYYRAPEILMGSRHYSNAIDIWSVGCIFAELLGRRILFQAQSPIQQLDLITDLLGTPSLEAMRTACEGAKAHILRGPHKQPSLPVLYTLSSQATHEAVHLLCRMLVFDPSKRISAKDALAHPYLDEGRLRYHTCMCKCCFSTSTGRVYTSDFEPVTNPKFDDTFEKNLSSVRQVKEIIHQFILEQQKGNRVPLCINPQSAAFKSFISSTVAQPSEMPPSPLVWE
The procedure: as §1

For a further experiment, the target named is T9, PKN3 (Homo sapiens, UniProt Q6P5Z2).
T9 construct: purchased ProQinase (Freiburg, Germany)
How it is done:
as §1

Another experiment addresses T10, SGK3 (Homo sapiens, UniProt Q96BR1).
T10 construct: purchased ProQinase (Freiburg, Germany)
T10 sequence (Q96BR1 1-496): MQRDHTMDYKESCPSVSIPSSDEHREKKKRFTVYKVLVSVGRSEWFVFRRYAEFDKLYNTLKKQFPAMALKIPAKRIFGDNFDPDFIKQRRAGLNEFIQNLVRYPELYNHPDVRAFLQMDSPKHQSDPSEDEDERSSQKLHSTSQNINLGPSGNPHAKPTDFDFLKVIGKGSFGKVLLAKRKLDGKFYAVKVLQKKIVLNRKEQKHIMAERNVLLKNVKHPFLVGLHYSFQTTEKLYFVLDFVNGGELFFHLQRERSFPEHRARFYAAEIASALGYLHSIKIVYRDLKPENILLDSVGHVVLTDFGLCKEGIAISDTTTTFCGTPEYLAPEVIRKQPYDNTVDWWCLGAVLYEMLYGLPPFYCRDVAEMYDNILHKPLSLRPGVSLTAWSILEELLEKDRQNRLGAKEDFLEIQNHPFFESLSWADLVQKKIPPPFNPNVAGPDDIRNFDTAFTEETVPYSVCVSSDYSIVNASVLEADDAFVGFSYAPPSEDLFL
The procedure: as §1

The target in the next experiment is T11, WNK1 (Homo sapiens, UniProt Q9H4A3).
T11 construct: purchased ProQinase (Freiburg, Germany)
How it is done: as §1

T9 sequence (Q6P5Z2 whole entry): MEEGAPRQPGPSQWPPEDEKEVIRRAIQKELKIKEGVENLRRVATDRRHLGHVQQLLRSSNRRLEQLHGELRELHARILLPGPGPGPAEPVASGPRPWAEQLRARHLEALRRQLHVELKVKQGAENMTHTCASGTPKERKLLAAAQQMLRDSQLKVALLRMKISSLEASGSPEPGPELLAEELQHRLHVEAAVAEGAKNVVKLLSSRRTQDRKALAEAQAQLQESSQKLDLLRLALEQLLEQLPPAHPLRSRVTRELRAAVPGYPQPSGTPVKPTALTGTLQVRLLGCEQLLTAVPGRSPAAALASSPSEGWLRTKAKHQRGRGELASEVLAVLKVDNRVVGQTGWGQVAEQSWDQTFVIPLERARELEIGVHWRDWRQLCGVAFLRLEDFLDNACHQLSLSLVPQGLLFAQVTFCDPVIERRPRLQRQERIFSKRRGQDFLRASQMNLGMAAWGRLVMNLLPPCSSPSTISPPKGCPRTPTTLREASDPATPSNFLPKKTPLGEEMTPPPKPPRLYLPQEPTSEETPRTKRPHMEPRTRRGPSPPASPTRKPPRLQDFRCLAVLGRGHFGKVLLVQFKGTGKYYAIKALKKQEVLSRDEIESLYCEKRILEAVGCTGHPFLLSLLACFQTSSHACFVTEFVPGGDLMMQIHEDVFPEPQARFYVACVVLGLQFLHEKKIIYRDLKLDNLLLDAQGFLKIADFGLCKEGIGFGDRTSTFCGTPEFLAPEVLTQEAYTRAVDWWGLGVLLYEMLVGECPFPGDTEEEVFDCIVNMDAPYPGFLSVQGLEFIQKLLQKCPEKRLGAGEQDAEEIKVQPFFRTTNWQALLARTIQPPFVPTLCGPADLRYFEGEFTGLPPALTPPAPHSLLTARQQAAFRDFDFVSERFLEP
T5 sequence (Q00534 whole entry): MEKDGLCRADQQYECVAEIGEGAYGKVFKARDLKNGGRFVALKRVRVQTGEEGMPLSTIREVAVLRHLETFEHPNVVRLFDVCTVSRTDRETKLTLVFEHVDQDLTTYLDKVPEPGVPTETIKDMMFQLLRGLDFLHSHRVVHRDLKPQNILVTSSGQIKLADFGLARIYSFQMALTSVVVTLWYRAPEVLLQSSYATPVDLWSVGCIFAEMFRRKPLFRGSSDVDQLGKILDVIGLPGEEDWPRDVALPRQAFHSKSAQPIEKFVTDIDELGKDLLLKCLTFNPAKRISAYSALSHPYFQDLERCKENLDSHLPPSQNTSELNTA
T5 sequence (P30281 whole entry partner): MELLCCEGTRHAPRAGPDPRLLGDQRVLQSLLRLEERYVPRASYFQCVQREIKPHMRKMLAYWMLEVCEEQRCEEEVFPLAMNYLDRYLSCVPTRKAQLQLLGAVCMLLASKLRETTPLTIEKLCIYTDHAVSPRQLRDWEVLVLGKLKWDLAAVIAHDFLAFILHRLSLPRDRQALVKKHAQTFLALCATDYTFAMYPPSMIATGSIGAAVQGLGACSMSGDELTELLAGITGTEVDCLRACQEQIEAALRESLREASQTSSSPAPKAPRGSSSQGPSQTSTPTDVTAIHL
T2 sequence (O00311 whole entry): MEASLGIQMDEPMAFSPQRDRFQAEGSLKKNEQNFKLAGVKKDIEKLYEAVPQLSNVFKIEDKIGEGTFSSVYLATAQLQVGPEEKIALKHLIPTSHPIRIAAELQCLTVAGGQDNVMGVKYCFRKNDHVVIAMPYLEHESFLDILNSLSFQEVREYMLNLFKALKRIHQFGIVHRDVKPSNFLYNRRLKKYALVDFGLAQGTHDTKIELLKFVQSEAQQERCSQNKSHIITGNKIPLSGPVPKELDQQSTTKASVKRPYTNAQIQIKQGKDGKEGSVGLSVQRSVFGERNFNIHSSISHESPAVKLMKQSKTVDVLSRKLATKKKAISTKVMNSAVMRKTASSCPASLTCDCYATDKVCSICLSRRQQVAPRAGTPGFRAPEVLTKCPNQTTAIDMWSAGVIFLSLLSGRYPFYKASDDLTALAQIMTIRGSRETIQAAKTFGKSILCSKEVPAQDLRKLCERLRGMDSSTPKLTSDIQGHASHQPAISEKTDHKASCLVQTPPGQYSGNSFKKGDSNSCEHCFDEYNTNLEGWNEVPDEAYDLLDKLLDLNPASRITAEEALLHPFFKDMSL
T2 sequence (Q9UBU7 whole entry partner): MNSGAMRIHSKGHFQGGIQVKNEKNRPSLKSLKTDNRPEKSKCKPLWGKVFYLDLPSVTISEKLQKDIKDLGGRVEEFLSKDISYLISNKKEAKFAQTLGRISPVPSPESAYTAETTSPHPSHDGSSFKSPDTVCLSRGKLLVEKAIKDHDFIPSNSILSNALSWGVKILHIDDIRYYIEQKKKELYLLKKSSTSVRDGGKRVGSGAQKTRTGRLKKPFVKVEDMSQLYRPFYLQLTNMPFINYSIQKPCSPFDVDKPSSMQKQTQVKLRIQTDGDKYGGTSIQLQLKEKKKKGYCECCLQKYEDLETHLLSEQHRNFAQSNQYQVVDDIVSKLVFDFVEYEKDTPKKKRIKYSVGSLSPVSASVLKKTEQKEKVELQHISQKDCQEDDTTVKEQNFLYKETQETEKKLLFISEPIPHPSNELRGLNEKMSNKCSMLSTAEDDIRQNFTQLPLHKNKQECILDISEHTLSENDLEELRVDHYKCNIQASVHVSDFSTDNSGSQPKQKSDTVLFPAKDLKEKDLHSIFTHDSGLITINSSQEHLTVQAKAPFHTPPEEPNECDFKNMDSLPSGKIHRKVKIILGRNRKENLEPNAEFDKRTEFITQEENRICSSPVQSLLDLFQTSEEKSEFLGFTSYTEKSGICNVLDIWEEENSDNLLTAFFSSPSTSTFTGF
T7 sequence (P51957 whole entry): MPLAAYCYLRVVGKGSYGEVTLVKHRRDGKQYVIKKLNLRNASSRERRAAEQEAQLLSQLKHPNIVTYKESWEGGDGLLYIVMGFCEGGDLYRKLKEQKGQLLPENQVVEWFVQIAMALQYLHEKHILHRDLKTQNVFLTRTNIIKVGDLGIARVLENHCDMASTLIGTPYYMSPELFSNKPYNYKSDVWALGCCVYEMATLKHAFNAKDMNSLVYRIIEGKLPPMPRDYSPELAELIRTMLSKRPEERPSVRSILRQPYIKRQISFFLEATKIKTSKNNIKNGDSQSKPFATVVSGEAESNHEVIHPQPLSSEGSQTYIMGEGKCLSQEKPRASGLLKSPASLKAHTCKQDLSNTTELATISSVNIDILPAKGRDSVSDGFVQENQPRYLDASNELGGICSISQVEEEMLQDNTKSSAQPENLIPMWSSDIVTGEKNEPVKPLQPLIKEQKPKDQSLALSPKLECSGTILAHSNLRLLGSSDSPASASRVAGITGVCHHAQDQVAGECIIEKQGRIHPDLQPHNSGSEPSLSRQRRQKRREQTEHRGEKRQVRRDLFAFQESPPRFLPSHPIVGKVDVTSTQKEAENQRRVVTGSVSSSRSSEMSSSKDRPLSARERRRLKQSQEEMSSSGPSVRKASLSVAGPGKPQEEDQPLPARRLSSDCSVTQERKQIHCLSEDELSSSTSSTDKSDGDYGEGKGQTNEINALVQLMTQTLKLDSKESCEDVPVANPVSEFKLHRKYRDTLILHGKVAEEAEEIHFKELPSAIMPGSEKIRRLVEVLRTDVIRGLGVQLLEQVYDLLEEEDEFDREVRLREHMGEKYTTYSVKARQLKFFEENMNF

With `O=C(Cc1ccccc1)Nc1ccc(F)c(Nc2ccc3c(c2)CCCCC3=O)c1` [Compound 100], the Residual activity at BRSK2 (1.0E-05 M) is recorded as 99 % of control; at BRSK2 (1.0E-06 M), 113 % of control; at CDC7/DBF4 (1.0E-05 M), 93 % of control; on CDC7/DBF4 (1.0E-06 M), 98 % of control; at CDK2/CycA2 (1.0E-05 M), 106 % of control; at CDK2/CycA2 (1.0E-06 M), 87 % of control. The Residual activity at CDK2/CycE1 (1.0E-05 M) is listed as 118 % of control; at CDK2/CycE1 (1.0E-06 M), 86 % of control; at CDK6/CycD3 (1.0E-05 M) it was 92 % of control; at CDK6/CycD3 (1.0E-06 M), 90 % of control; at MST2 (1.0E-05 M), 82 % of control; at MST2 (1.0E-06 M), 94 % of control. For the same compound, the Residual activity on NEK4 (1.0E-05 M) is on record as 81 % of control; at NEK4 (1.0E-06 M), 102 % of control; on NLK (1.0E-05 M) it was 96 % of control; at NLK (1.0E-06 M), 96 % of control; at PKN3 (1.0E-05 M) it was 101 % of control; on PKN3 (1.0E-06 M) it was 104 % of control. Moreover, the Residual activity at SGK3 (1.0E-05 M) is recorded as 98 % of control; at SGK3 (1.0E-06 M) it was 103 % of control; on WNK1 (1.0E-05 M) it was 97 % of control; on WNK1 (1.0E-06 M) it was 99 % of control.

Consider `O=C(Nc1ccc(F)c(Nc2ccc3c(c2)CCCCC3=O)c1)c1cccc(F)c1` [Compound 109], for which the Residual activity on BRSK2 (1.0E-05 M) was 100 % of control; at BRSK2 (1.0E-06 M), 109 % of control; at CDC7/DBF4 (1.0E-05 M), 91 % of control; at CDC7/DBF4 (1.0E-06 M), 96 % of control; at CDK2/CycA2 (1.0E-05 M), 94 % of control; at CDK2/CycA2 (1.0E-06 M) it was 83 % of control. In addition, the Residual activity at CDK2/CycE1 (1.0E-05 M) is on record as 103 % of control; at CDK2/CycE1 (1.0E-06 M) it was 93 % of control; on CDK6/CycD3 (1.0E-05 M) it was 93 % of control; on CDK6/CycD3 (1.0E-06 M), 87 % of control; on MST2 (1.0E-05 M) it was 75 % of control; at MST2 (1.0E-06 M) it was 90 % of control. Also, the Residual activity is on record as 94 % of control on NEK4 (1.0E-05 M); 98 % of control at NEK4 (1.0E-06 M); 91 % of control at NLK (1.0E-05 M); 97 % of control on NLK (1.0E-06 M); 92 % of control on PKN3 (1.0E-05 M); 91 % of control at PKN3 (1.0E-06 M). In addition, the Residual activity on SGK3 (1.0E-05 M) was 97 % of control; at SGK3 (1.0E-06 M), 96 % of control; on WNK1 (1.0E-05 M), 94 % of control; at WNK1 (1.0E-06 M), 93 % of control.
